Experimental data reported in US20230123334A1, “AMINO LIPID COMPOUND, PREPARATION METHOD THEREFOR, AND APPLICATION THEREOF” (SHENZHEN SHENXIN BIOTECHNOLOGY CO., LTD., priority 2020, published 2023).

Each molecule was assayed on HEK293 cells (assay: Preliminary screening as mRNA vectors, EGFP mRNA transfection of HEK293 cells). Settings: EGFP mRNA 50 ng per well, 96-well plates; percentage of GFP fluorescent cells relative to total number of cells (Hoechst).
Format: cell-based
Summary of the method: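 HEK293 cells in DMEM plus 10% FBS transfected in 96-well format with 50 ng EGFP mRNA per well; Lipofectamine2000 served as positive control. Read-out is the percentage of GFP-fluorescent cells among total cells, counted by Hoechst nuclear stain.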
For `CCCCCCCCCCCCCCCCCCSc1nc(NCCCCCCCCC)nc(NCCCN2CCOCC2)n1` [Compound D8S18N9], the “Absolute mRNA transfection efficiency in HEK293 cells” value (from here on “Absolute mRNA transfection efficiency”) was 0.2%. `CCCCCCCCCCCCCCCCSc1nc(NCCCCCCCC)nc(NCCCN2CCN(C)CC2)n1` [Compound D9S16N8] was tested, and the “Absolute mRNA transfection efficiency” value was 71.3%. In the case of `CCCCCCCCCCCCCCSc1nc(NCCN2CCN(C)CC2)nc(N(CCCCCCCCCCCC)CCCCCCCCCCCC)n1` [D5S14^2N12], the “Absolute mRNA transfection efficiency” value is reported as 0.9%. For `CCCCCCCCCCCCCNc1nc(NCC2CCN(C)CC2)nc(SCCCCCCCCC)n1` [Compound D10S9N13], the “Absolute mRNA transfection efficiency” value was 75.8%. With `CCCCCCCCCCCCCCCCCCSc1nc(NCCCCCCCCC)nc(NCCN2CCN(C)CC2)n1` [Compound D5S18N9] the “Absolute mRNA transfection efficiency” value was 11.6%. In the case of `CCCCCCCCSc1nc(NCCCCCC)nc(NCCCN(C)C)n1` [Compound D6S8N6], the “Absolute mRNA transfection efficiency” value is reported as 9.4%. With `CCCCCCCCCCCCCCCNc1nc(NCCN(CC)CC)nc(SCCCCCCCC)n1` [Compound D7S8N15] the “Absolute mRNA transfection efficiency” value was 15.7%. With `CCCCCCCCCCCSc1nc(NCCCCCC)nc(NCCN(C)C)n1` [Compound D1S11N6] the “Absolute mRNA transfection efficiency” value was 4.4%. For `CCCCCCCCSc1nc(NCCN2CCOCC2)nc(SCCCCCCCC)n1` [Compound D2S8S8], the “Absolute mRNA transfection efficiency” value was 54.5%. In the case of `CCCCCCCCCCCNc1nc(NCCN2CCCCC2)nc(SCCCCCC)n1` [Compound D4S6N11], the “Absolute mRNA transfection efficiency” value is reported as 0.9%. In the case of `CCCCCCCCCCCNc1nc(NCC2CCN(C)CC2)nc(SCCCCCCC)n1` [Compound D10S7N11], the “Absolute mRNA transfection efficiency” value is reported as 25.3%. For `CCCCCCCCCCCNc1nc(NCC2CCN(C)CC2)nc(SCCCCCCCC)n1` [Compound D10S8N11], the “Absolute mRNA transfection efficiency” value was 81.5%. `CCCCCCCCCCCCCCCSc1nc(NCCCN2CCN(C)CC2)nc(N(CCCCCCCCCCCC)CCCCCCCCCCCC)n1` [D9S15^2N12] was tested, and the “Absolute mRNA transfection efficiency” value was 0.4%. In the case of `CCCCCCCCCCCCSc1nc(NCCCCCCCCC)nc(NCCCN2CCOCC2)n1` [Compound D8S12N9], the “Absolute mRNA transfection efficiency” value is reported as 2.3%. For `CCCCCCCCCCCCCCCCCCSc1nc(NCCCCCC)nc(NCCN(C)C)n1` [Compound D1S18N6], the “Absolute mRNA transfection efficiency” value was 42.6%. With `CCCCCCCCCCCCCCCCCCNc1nc(NCCN2CCN(C)CC2)nc(SCCCCCC)n1` [Compound D5S6N18] the “Absolute mRNA transfection efficiency” value was 16.6%. In the case of `CCCCCCCCCCCCCCCNc1nc(NCCN(C)C)nc(SCCCCCCCCCCCC)n1` [Compound D1S12N15], the “Absolute mRNA transfection efficiency” value is reported as 0.5%. With `CCCCCCCCCCCCCCCCSc1nc(NCCCCCCCCCCC)nc(NCC2CCN(C)CC2)n1` [Compound D10S16N11] the “Absolute mRNA transfection efficiency” value was 37.8%. In the case of `CCCCCCCCCCSc1nc(NCCCCCCCCC)nc(NCCN(CC)CC)n1` [Compound D7S10N9], the “Absolute mRNA transfection efficiency” value is reported as 1.6%. In the case of `CCCCCCCCSc1nc(NCCN2CCN(C)CC2)nc(SCCCCCCC)n1` [Compound D5S7S8], the “Absolute mRNA transfection efficiency” value is reported as 16.6%. With `CCCCCCCCCCCCCCCCCCSc1nc(NCCN(C)C)nc(N(CCCCCCCCCCCC)CCCCCCCCCCCC)n1` [D1S18^2N12] the “Absolute mRNA transfection efficiency” value was 0.0%. With `CCCCCCCCCCCCCCCCCCSc1nc(NCCCN2CCOCC2)nc(N(CCCCCCCCCCCC)CCCCCCCCCCCC)n1` [D8S18^2N12] the “Absolute mRNA transfection efficiency” value was 0.0%. With `CCCCCCCCCCCCCCSc1nc(NCCCCCCC)nc(NCCN(CC)CC)n1` [Compound D7S14N7] the “Absolute mRNA transfection efficiency” value was 36.3%. With `CCCCCCCSc1nc(NCCCCCC)nc(NCCN2CCN(C)CC2)n1` [Compound D5S7N6] the “Absolute mRNA transfection efficiency” value was 1.9%. `CCCCCCCCCCCCCCCCSc1nc(NCC2CCN(C)CC2)nc(N(CCCCCCCCCCCC)CCCCCCCCCCCC)n1` [D10S16^2N12] was tested, and the “Absolute mRNA transfection efficiency” value was 0.2%. `CCCCCCCCCCCCCCCCSc1nc(NCCCCCCCCCCCC)nc(NCCCN2CCOCC2)n1` [Compound D8S16N12] was tested, and the “Absolute mRNA transfection efficiency” value was 0.9%. With `CCCCCCCCCCCCCCCCSc1nc(NCCCCCCC)nc(NCCN2CCCCC2)n1` [Compound D4S16N7] the “Absolute mRNA transfection efficiency” value was 0.8%.
